The values that follow come from ChEMBL document CHEMBL4680201, “Design, synthesis, and pharmacological evaluation of 4- or 6-phenyl-pyrimidine derivatives as novel and selective Janus kinase 3 inhibitors” (Eur J Med Chem, 2020).

In test [1] the target is Tyrosine-protein kinase JAK2 (Homo sapiens, UniProt O60674). Type of test: ADME.
In test [2] the target is Non-receptor tyrosine-protein kinase TYK2 (Homo sapiens, UniProt P29597). Nature of the test: Inhibition of recombinant human N-terminal GST-tagged TYK2 cytoplasmic domain (833 to 1187 residues) expressed in baculovirus expression system using TK-substrate-biotin preincubated for 5 mins followed by substrate addition and measured after 30 mins by HTRF assay. Background: Time-resolved FRET reads energy transfer from a long-lived donor to a nearby acceptor.
Chain of Non-receptor tyrosine-protein kinase TYK2 (P29597 whole entry, the tested form may be a part): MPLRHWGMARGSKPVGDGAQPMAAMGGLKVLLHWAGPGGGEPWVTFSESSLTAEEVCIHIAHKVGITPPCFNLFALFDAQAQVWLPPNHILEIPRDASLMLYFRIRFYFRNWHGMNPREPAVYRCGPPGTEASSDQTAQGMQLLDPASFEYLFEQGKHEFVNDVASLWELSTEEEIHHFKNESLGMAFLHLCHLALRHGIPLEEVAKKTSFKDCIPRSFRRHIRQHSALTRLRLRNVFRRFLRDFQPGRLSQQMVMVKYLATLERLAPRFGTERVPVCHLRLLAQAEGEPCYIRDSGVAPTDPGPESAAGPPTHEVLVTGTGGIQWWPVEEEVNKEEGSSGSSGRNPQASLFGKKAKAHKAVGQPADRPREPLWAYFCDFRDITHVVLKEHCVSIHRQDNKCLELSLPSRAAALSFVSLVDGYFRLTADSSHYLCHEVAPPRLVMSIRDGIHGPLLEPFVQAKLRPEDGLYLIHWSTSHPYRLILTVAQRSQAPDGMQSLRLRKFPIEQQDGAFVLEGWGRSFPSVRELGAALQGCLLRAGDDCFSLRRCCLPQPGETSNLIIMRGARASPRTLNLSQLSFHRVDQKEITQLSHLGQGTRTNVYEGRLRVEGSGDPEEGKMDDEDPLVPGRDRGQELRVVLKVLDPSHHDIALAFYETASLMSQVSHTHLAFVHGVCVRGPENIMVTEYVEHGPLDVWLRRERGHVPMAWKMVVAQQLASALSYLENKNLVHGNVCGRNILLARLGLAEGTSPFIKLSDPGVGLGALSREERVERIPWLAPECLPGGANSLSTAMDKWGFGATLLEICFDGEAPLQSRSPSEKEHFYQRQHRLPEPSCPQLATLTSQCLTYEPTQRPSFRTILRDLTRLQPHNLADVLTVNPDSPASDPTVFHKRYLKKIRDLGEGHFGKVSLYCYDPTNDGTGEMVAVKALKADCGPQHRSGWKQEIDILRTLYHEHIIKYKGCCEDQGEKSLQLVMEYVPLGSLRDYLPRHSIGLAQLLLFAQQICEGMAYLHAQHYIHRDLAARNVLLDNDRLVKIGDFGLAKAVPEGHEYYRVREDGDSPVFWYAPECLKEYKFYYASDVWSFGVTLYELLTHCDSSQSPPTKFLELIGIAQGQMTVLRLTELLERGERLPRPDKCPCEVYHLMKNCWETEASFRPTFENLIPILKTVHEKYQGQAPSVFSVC

Test [3] has as its target T1, Tyrosine-protein kinase JAK3 (Homo sapiens, UniProt P52333).
T1 sequence (P52333 whole entry): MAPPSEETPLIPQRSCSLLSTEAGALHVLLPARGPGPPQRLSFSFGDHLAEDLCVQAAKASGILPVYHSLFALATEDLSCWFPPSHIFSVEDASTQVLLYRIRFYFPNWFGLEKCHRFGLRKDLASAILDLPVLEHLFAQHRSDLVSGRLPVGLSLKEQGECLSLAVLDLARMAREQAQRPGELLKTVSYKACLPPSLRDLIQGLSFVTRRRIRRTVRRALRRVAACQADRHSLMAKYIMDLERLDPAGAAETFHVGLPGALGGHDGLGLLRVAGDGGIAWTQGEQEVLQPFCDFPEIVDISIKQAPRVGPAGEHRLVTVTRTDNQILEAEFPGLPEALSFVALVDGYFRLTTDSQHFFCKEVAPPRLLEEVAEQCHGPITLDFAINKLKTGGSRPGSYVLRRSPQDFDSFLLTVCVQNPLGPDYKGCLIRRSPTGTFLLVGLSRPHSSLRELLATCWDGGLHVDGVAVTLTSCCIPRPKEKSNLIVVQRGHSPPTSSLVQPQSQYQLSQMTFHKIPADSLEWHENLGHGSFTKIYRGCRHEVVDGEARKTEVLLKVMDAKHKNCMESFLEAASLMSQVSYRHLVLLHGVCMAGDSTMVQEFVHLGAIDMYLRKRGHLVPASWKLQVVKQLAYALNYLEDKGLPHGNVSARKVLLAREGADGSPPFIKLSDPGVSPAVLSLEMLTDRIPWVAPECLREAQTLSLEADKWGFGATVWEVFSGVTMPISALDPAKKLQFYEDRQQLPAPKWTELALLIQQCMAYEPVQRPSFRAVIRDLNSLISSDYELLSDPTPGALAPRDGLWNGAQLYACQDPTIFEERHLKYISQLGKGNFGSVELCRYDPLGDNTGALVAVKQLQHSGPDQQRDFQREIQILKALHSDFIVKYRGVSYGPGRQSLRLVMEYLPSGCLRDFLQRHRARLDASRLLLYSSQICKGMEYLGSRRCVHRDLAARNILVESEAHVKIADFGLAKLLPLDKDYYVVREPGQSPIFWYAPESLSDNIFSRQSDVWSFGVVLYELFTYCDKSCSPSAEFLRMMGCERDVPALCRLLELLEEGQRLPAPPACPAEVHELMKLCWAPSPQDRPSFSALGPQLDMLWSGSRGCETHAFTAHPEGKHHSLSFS

Test [4] deals with Tyrosine-protein kinase JAK1 (Homo sapiens, UniProt P23458). Nature of the test: Inhibition of recombinant human GST-tagged JAK1 cytoplasmic domain (866 to 1154 residues) expressed in baculovirus expression system using TK-substrate-biotin preincubated for 5 mins followed by substrate addition and measured after 30 mins by HTRF assay.
Chain of Tyrosine-protein kinase JAK1 (P23458 whole entry, the tested form may be a part): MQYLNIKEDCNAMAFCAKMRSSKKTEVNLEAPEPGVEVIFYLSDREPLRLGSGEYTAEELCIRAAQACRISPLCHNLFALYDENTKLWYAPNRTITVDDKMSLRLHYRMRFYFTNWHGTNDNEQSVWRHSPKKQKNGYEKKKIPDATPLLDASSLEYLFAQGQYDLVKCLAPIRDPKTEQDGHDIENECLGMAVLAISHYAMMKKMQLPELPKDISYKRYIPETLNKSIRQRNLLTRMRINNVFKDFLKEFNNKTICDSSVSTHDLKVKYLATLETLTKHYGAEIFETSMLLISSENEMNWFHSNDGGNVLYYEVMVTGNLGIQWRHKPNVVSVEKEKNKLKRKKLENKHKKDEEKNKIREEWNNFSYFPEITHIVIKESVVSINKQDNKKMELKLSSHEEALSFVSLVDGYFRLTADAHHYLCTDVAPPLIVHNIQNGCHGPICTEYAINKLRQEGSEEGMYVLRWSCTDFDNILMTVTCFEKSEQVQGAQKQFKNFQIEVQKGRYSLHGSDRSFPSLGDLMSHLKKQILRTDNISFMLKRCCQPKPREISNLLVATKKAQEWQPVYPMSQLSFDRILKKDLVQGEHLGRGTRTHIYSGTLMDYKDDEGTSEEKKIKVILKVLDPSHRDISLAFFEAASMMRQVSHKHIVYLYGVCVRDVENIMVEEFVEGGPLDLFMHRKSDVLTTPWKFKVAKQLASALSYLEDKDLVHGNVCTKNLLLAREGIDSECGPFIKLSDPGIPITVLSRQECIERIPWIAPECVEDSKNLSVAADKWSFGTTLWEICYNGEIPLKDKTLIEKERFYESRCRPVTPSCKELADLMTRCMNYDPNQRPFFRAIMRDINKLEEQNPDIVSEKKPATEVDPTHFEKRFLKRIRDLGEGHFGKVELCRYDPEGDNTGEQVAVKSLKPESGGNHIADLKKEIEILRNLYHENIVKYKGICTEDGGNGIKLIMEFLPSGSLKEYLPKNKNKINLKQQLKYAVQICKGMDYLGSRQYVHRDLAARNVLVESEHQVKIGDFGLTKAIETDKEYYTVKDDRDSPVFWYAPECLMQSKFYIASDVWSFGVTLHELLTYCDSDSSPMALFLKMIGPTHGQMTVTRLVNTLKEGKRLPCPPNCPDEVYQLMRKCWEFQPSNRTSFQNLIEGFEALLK

Chain of Tyrosine-protein kinase JAK2 (O60674 whole entry, the tested form may be a part): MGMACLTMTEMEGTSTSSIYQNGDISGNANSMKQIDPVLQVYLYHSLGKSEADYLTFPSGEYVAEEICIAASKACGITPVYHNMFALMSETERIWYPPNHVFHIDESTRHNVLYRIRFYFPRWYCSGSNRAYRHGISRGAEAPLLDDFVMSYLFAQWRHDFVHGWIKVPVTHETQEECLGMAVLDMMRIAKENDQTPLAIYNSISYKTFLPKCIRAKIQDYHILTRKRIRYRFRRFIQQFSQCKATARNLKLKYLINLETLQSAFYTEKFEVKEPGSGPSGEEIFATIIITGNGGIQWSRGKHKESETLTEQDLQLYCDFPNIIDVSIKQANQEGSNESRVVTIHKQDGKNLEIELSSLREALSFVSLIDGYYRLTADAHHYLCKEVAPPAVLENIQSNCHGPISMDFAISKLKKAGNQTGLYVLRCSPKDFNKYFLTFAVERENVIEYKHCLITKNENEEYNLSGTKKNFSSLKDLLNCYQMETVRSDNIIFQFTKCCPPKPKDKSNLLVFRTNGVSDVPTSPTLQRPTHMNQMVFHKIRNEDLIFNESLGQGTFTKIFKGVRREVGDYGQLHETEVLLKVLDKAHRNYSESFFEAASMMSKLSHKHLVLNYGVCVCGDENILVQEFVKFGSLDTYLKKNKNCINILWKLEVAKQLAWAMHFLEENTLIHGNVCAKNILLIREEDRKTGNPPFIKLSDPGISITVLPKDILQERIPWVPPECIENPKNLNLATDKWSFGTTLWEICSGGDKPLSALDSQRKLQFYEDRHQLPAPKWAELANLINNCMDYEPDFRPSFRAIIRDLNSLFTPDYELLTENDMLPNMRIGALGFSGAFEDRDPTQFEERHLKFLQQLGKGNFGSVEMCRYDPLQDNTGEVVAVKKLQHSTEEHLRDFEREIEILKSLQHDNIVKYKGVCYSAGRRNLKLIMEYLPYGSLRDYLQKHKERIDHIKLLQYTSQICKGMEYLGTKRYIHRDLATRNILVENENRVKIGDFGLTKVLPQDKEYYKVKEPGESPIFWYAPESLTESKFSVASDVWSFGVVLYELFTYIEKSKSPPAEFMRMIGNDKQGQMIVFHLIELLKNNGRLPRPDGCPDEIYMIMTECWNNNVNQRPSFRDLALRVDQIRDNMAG

One may read the IC50 as the concentration at which inhibition is half-maximal. With `C/C=C/C(=O)Nc1cccc(-c2ccnc(Nc3ccc(N4CCOCC4)cc3)n2)c1`, the IC50 was found to be 2790 nM in test [1], 2650 nM in test [2] and 33 nM in test [3].
In the case of `N#CCC(=O)Nc1ccc(-c2ccnc(Nc3ccc(N4CCOCC4)cc3)n2)cc1`, the IC50 is 433 nM in test [4] and over 3000 nM in test [2].
As to `C=CC(=O)Nc1cccc(-c2cc(Nc3cnn(CCO)c3)ncn2)c1`, the IC50 in test [1] came to 2590 nM; in test [3] it was 599 nM.
With `C=CC(=O)Nc1ccc(-c2cc(Nc3cnn(CCOC)c3)ncn2)cc1`, the IC50 was 1660 nM in test [4], over 3000 nM in test [1], over 3000 nM in test [2] and 67 nM in test [3].
Take `C/C=C/C(=O)Nc1cccc(-c2cc(Nc3cnn(C)c3)ncn2)c1`: the IC50 came out at 1520 nM in test [4], 2760 nM in test [1] and 567 nM in test [3].
Consider `C=CC(=O)NCC(=O)Nc1cccc(-c2cc(Nc3ccc(N4CCOCC4)cc3)ncn2)c1`, for which the IC50 in test [4] is 354 nM; in test [1] it was over 3000 nM; in test [3], 103 nM.
As to `C=CC(=O)Nc1cccc(-c2ccnc(Nc3cnn(CCOC)c3)n2)c1`, the IC50 in test [4] worked out at 1100 nM; in test [1], 1290 nM; in test [2], 2870 nM; in test [3] it was 55 nM.
For `C/C=C/C(=O)Nc1cccc(-c2cc(Nc3cnn(CCOC)c3)ncn2)c1`, the IC50 in test [4] was 1290 nM; in test [1], 2580 nM; in test [2], over 3000 nM; in test [3], 29 nM.
`C=CC(=O)Nc1cccc(-c2cc(Nc3cnn(CC(=O)NC)c3)ncn2)c1`: the values for the IC50 in test [4] and in test [3] were 840 nM and 138 nM, respectively.
As to `Cn1cc(Nc2cc(-c3cccc(NC(=O)CC#N)c3)ncn2)cn1`, the figures for the IC50 in test [4] and in test [3] were 854 nM and 145 nM, respectively.
As for `C/C=C/C(=O)Nc1cccc(-c2cc(Nc3cnn(CCN(C)C)c3)ncn2)c1`, the IC50 in test [4] turned out to be 899 nM; in test [1], 1890 nM; in test [3], 67 nM.
For `C=CC(=O)Nc1cccc(-c2cc(Nc3cnn(CCN(C)C)c3)ncn2)c1`, the values for the IC50 in test [4], in test [1] and in test [3] were 731 nM, over 3000 nM and 309 nM, respectively.
Take `COCCn1cc(Nc2cc(-c3ccc(NC(=O)CC#N)cc3)ncn2)cn1`: the IC50 came out at 2680 nM in test [4], 1460 nM in test [1], 1870 nM in test [2] and 86 nM in test [3].
As for `C=CC(=O)Nc1cccc(-c2cc(Nc3cnn(CCOC)c3)ncn2)c1`, the figures for the IC50 in test [4], in test [1] and in test [3] were 568 nM, 2850 nM and 101 nM, respectively.
For the compound `N#CCC(=O)Nc1cccc(-c2cc(Nc3cnn(CCO)c3)ncn2)c1`, the 50% inhibitory concentration (IC50) is 1540 nM in test [4], 1140 nM in test [1] and 243 nM in test [3].
With `Cn1cc(Nc2cc(-c3cccc(NC(=O)CNC(=O)CC#N)c3)ncn2)cn1`, the IC50 is 89 nM in test [4], 69 nM in test [1] and 95 nM in test [3].
Regarding `C=CC(=O)Nc1cccc(-c2cc(Nc3ccc(N4CCOCC4)cc3)ncn2)c1`, the IC50 was 1110 nM in test [4], 2040 nM in test [1] and 183 nM in test [3].
For `N#CCC(=O)NCC(=O)Nc1cccc(-c2cc(Nc3ccc(N4CCOCC4)cc3)ncn2)c1`, the IC50 in test [4] worked out at 1430 nM; in test [1] it was 309 nM; in test [3], 253 nM.
As to `N#CCC(=O)Nc1cccc(-c2cc(Nc3ccc(N4CCOCC4)cc3)ncn2)c1`, the IC50 in test [4] was determined as 1860 nM; in test [1] it was 734 nM; in test [3], 170 nM.
Regarding `C/C=C/C(=O)Nc1ccc(-c2cc(Nc3cnn(CCOC)c3)ncn2)cc1`, the IC50 was determined as 2760 nM in test [4] and 76 nM in test [3].
As for `C/C=C/C(=O)Nc1cccc(-c2cc(Nc3cnn(CC(=O)NC)c3)ncn2)c1`, the IC50 came to 1110 nM in test [1] and 92 nM in test [3].
On to `N#CCC(=O)Nc1cccc(-c2ccnc(Nc3ccc(N4CCOCC4)cc3)n2)c1`, for which the IC50 in test [4] is 2230 nM; in test [1] it was 216 nM; in test [2], over 3000 nM; in test [3] it was 152 nM.
As to `C/C=C/C(=O)NCC(=O)Nc1cccc(-c2cc(Nc3cnn(CCOC)c3)ncn2)c1`, the results for the half-inhibitory concentration (IC50) in test [4], in test [1] and in test [3] were 45 nM, 886 nM and 108 nM, respectively.
With `COCCn1cc(Nc2nccc(-c3ccc(NC(=O)CC#N)cc3)n2)cn1`, the IC50 in test [4] worked out at 183 nM; in test [2], 2500 nM; in test [3], 24 nM.
`N#CCC(=O)Nc1ccc(-c2cc(Nc3ccc(N4CCOCC4)cc3)ncn2)cc1`: the results for the IC50 in test [4] and in test [3] were 528 nM and 78 nM, respectively.
On to `C=CC(=O)Nc1cccc(-c2ccnc(Nc3ccc(N4CCOCC4)cc3)n2)c1`, for which the IC50 in test [4] is 2120 nM; in test [1], 1800 nM; in test [2], 2440 nM; in test [3] it was 30 nM.
With `C=CC(=O)NCC(=O)Nc1cccc(-c2cc(Nc3cnn(CCOC)c3)ncn2)c1`, the results for the IC50 in test [4], in test [1] and in test [3] were 56 nM, 1540 nM and 66 nM, respectively.
In the case of `C/C=C/C(=O)Nc1ccc(-c2cc(Nc3ccc(N4CCOCC4)cc3)ncn2)cc1`, the IC50 worked out at 321 nM in test [4], 2150 nM in test [1] and 99 nM in test [3].
`COCCn1cc(Nc2cc(-c3cccc(NC(=O)CC#N)c3)ncn2)cn1`: the IC50 was determined as 322 nM in test [4], 587 nM in test [1], 2260 nM in test [2] and 65 nM in test [3].
Consider `C=CC(=O)Nc1ccc(-c2cc(Nc3ccc(N4CCOCC4)cc3)ncn2)cc1`, for which the IC50 in test [4] amounted to 961 nM; in test [1], 1570 nM; in test [3], 112 nM.
Regarding `CNC(=O)Cn1cc(Nc2cc(-c3cccc(NC(=O)CNC(=O)CC#N)c3)ncn2)cn1`, the IC50 in test [4] was over 3000 nM; in test [1] it was 2730 nM; in test [3] it was 127 nM.
For the compound `C/C=C/C(=O)Nc1ccc(-c2ccnc(Nc3cnn(CCOC)c3)n2)cc1`, the half-maximal inhibitory concentration (IC50) in test [4] is 1440 nM; in test [1], 1980 nM; in test [2] it was over 3000 nM; in test [3] it was 14 nM.
Consider `C=CC(=O)Nc1cccc(-c2cc(Nc3cnn(C)c3)ncn2)c1`, for which the IC50 is 657 nM in test [4], 2240 nM in test [1] and 303 nM in test [3].
`C/C=C/C(=O)NCC(=O)Nc1cccc(-c2cc(Nc3ccc(N4CCOCC4)cc3)ncn2)c1`: the IC50 came to 586 nM in test [4] and 375 nM in test [3].
Take `C/C=C/C(=O)Nc1cccc(-c2cc(Nc3ccc(N4CCOCC4)cc3)ncn2)c1`: the IC50 in test [4] is 2880 nM; in test [1] it was 2130 nM; in test [2], over 3000 nM.
In the case of `C/C=C/C(=O)Nc1cccc(-c2cc(Nc3cnn(CCO)c3)ncn2)c1`, the IC50 in test [4] stood at 2440 nM; in test [1] it was 2810 nM; in test [3], 221 nM.
